#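 Dose response: 5 concentrations. Exposure: 48 h. Format: 96-well plates. Endpoint: linear interpolation; highest concentration if not reached. GI50 is the concentration that inhibits growth by half.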 Active and inactive are the calls of the source. Cut-off read from the data, not from the text of the source: active = GI50 up to about 1.1 µM and inactive = higher.
# Experiments:
# Assay in all cases: NCI anticancer screen, dose series, 48 h
# A549 = tested on: A549
# ACHN = tested on: ACHN
# CAKI-1 = tested on: CAKI-1
# CCRF-CEM = tested on: CCRF-CEM
# COLO 205 = tested on: COLO 205
# DU-145 = tested on: DU-145
# EKVX = tested on: EKVX
# HCT-15 = tested on: HCT-15
# HL-60 = tested on: HL-60
# HOP-62 = tested on: HOP-62
# HOP-92 = tested on: HOP-92
# HT-29 = tested on: HT-29
# Hs-578T = tested on: Hs-578T
# IGROV-1 = tested on: IGROV-1
# K562 = tested on: K562
# KM12 = tested on: KM12
# LOX IMVI = tested on: LOX IMVI
# M14 = tested on: M14
# MCF7 = tested on: MCF7
# MDA-MB-231 = tested on: MDA-MB-231
# MDA-MB-435 = tested on: MDA-MB-435
# MDA-N = tested on: MDA-N
# MOLT-4 = tested on: MOLT-4
# Malme-3M = tested on: Malme-3M
# NCI-H226 = tested on: NCI-H226
# NCI-H23 = tested on: NCI-H23
# NCI-H460 = tested on: NCI-H460
# NCI-H522 = tested on: NCI-H522
# NCI/ADR-RES = tested on: NCI/ADR-RES
# OVCAR-3 = tested on: OVCAR-3
# OVCAR-4 = tested on: OVCAR-4
# OVCAR-5 = tested on: OVCAR-5
# OVCAR-8 = tested on: OVCAR-8
# PC-3 = tested on: PC-3
# RPMI-8226 = tested on: RPMI-8226
# RXF 393 = tested on: RXF 393
# SF-268 = tested on: SF-268
# SF-295 = tested on: SF-295
# SF-539 = tested on: SF-539
# SK-MEL-28 = tested on: SK-MEL-28
# SK-MEL-2 = tested on: SK-MEL-2
# SK-MEL-5 = tested on: SK-MEL-5
# SK-OV-3 = tested on: SK-OV-3
# SN12C = tested on: SN12C
# SNB-19 = tested on: SNB-19
# SNB-75 = tested on: SNB-75
# SR = tested on: SR
# SW-620 = tested on: SW-620
# TK-10 = tested on: TK-10
# U-251 = tested on: U-251
# UACC-257 = tested on: UACC-257
# UACC-62 = tested on: UACC-62
# UO-31 = tested on: UO-31
smiles,measurement,setting,value
CN(CC(=O)O)c1ncc2c(n1)-c1ccccc1OC2c1ccccc1 (stereo not drawn),GI50,A549,76.4 µM (inactive)
same,GI50,ACHN,> 100 µM (inactive)
same,GI50,CAKI-1,> 100 µM (inactive)
same,GI50,CCRF-CEM,44.3 µM (inactive)
same,GI50,COLO 205,> 100 µM (inactive)
same,GI50,DU-145,> 100 µM (inactive)
same,GI50,EKVX,> 100 µM (inactive)
same,GI50,HCT-15,> 100 µM
same,GI50,HL-60,33.2 µM (inactive)
same,GI50,HOP-62,> 100 µM (inactive)
same,GI50,HOP-92,> 100 µM (inactive)
same,GI50,HT-29,> 100 µM (inactive)
same,GI50,Hs-578T,> 100 µM (inactive)
same,GI50,IGROV-1,> 100 µM (inactive)
same,GI50,K562,71.8 µM (inactive)
same,GI50,KM12,79.6 µM (inactive)
same,GI50,LOX IMVI,> 100 µM (inactive)
same,GI50,M14,> 100 µM (inactive)
same,GI50,MCF7,> 100 µM (inactive)
same,GI50,MDA-MB-231,> 100 µM (inactive)
same,GI50,MDA-MB-435,> 100 µM (inactive)
same,GI50,MDA-N,> 100 µM (inactive)
same,GI50,MOLT-4,29.2 µM (inactive)
same,GI50,Malme-3M,> 100 µM (inactive)
same,GI50,NCI-H226,86.7 µM (inactive)
same,GI50,NCI-H23,51.6 µM (inactive)
same,GI50,NCI-H460,89.7 µM (inactive)
same,GI50,NCI-H522,> 100 µM (inactive)
same,GI50,NCI/ADR-RES,> 100 µM (inactive)
same,GI50,OVCAR-3,> 100 µM (inactive)
same,GI50,OVCAR-4,> 100 µM (inactive)
same,GI50,OVCAR-5,> 100 µM (inactive)
same,GI50,OVCAR-8,> 100 µM (inactive)
same,GI50,PC-3,61.1 µM (inactive)
same,GI50,RPMI-8226,38.1 µM (inactive)
same,GI50,RXF 393,56.1 µM (inactive)
same,GI50,SF-268,> 100 µM (inactive)
same,GI50,SF-295,> 100 µM (inactive)
same,GI50,SF-539,> 100 µM (inactive)
same,GI50,SK-MEL-28,> 100 µM (inactive)
same,GI50,SK-MEL-2,87.7 µM (inactive)
same,GI50,SK-MEL-5,> 100 µM (inactive)
same,GI50,SK-OV-3,> 100 µM (inactive)
same,GI50,SN12C,> 100 µM (inactive)
same,GI50,SNB-19,> 100 µM (inactive)
same,GI50,SNB-75,43.6 µM (inactive)
same,GI50,SR,37 µM (inactive)
same,GI50,SW-620,> 100 µM (inactive)
same,GI50,TK-10,> 100 µM (inactive)
same,GI50,U-251,> 100 µM (inactive)
same,GI50,UACC-257,> 100 µM (inactive)
same,GI50,UACC-62,92.5 µM (inactive)
same,GI50,UO-31,38 µM (inactive)

# — ChEMBL document CHEMBL1201862, “PubChem BioAssay data set” (2004)
